The record followed here is US20170226133A1, “Gold (I)-Phosphine Compounds as Anti-Bacterial Agents” (Auspherix Limited, priority 2014, published 2017).

The subject of data set [1] is S. aureus NCTC 8325 biofilm. Kind of data set: Preformed S. aureus biofilm assay (crystal violet). It is filed as cell-based, Staphylococcus aureus. To be noted: S. aureus NCTC 8325, 24 hours preformed biofilm, 24 hours exposure. The protocol:
The effect of a test compound on the formation of a S. aureus biofilm may be assessed using a biofilm prevention assay as described by Merritt et al. Current Protocols in Microbiology, 2011, 1B.1.1-1B1.18 with slight modifications. Briefly, S. aureus NCTC 8325, MRSA (RPAH18) and MRSA (MW2) are grown overnight in Tryptic soy broth (TSB) and diluted to between 1/50 and 1/100 before 150 μL is added to the wells of a flat bottomed 96-well plate. Three microliters of auranofin at the appropriate dilution in DMSO are added to the wells in duplicate. Controls included a serial dilution of lincomycin in ethanol (to assess plate to plate variation), a positive control with bacteria alone in TSB with 2% DMSO and a negative (no bacteria) control with 150 μL TSB containing 2% DMSO. Plates are sealed with AeraSeal™ and incubated at 37° C. for 24 hours. The plates are then washed three times with PBS, dried at 60° C. for 1 hour and stained with crystal violet for 1 hour. The plates are again washed three times with water, dried and scanned prior to the addition of 33% acetic acid to re-solubilize the crystal violet stain bound to the adherent cells. Absorbance is then measured at 595 nm and expressed as a percentage of the bacteria only control.
The effect of a test compound on preformed S. aureus biofilms can also be assessed. Briefly S. aureus NCTC 8325 is plated in 96-well plates as described in above and incubated 37° C. for 24 hours. Biofilms are then washed 3 times with TSB and 150 μL of fresh TSB and 3 μL of auranofin at the appropriate dilution in DMSO was added to the wells in duplicate. Plates are again sealed with AeraSeal™ and reincubated 37° C. for 24 hours. Biofilm is then detected as described above.

Another data set deals with G. mellonella larvae. Kind of data set: Galleria mellonella model, toxicity of compound alone. As to conditions: uninfected larvae. The format is in vivo. The protocol: (§1) G. mellonella larvae at 5th or 6th instar stage were purchased from a commercial supplier and used within 3 days. Prior to infection larvae were kept at room temperature. Larvae were infected with bacteria (various Gram positive and negative bacteria, including S. aureus, K. pneumoniae, E. coli and P. aeruginosa) using a sterile Hamilton syringe. Bacteria cultures were grown overnight, washed ×3 in PBS and resuspended in PBS. Larvae were wiped with 70% ethanol and 10 μl of bacteria solution (to cause 80% death within 3-4 days) was injected into the bottom right proleg of the larvae. Larvae injected with 10 μl of PBS were used as negative controls. Larvae were then placed in petri dishes (1 dish per condition) containing filter paper at the bottom of the dish at 37° C. After various time points post infection (1-6 h), larvae were taken from the incubator wiped again with 70% ethanol and injected with 10 μl of various concentrations of compound, dissolved in either 5% dimethyl sulfoxide, 5% ethanol or 5% 1-methyl-2-pyrrolidinone into a proleg on the left hand-side. Control larvae received 10 μl of 5% solvent. Ten larvae were injected for each condition. To assess the toxicity of the compound, larvae were injected with various concentrations of compound alone. Larvae were returned to a 37° C. incubator and checked daily. Larvae were considered dead when no movement occurred when touched with a blunt pair of forceps. […] Numbers of dead larvae were recorded each day.
Survival Proportions Following Dosing with 10 μl of Compound 8 Solutions of Varying Strengths

Data set [2] deals with human hepatocyte cell line (HepG2). Kind of data set: HepG2 cell inhibition assay (CCK-8 cell viability). It is filed as cell-based. As to conditions: 50% growth inhibition, 24 hours. How it is done: Cell counting kit-8 (Sigma, CCK-8) assays were performed to assess the effect of compounds on cell viability. The assay is based on the reduction of a water-soluble tetrazolium salt (WST-8) by cellular dehydrogenases to a formazan dye which can be detected spectroscopically. 96-well plates were seeded with the human hepatocyte cell line (HepG2) at approximately 8×10^3 cells per well in Minimum Essential Medium Eagle (EMEM) with Earle's salts and sodium bicarbonate supplemented with 10% heat-inactivated foetal bovine serum 2 mM glutamine and 1% non-essential amino acids (NEAA). The following day serial dilutions of compounds (dissolved and diluted in DMSO) were added to the cells in duplicates. Control included an ‘untreated’ control where cells were grown in the presence of 1% DMSO and a medium only control (plus 1% DMSO). After 24 hours CCK-8 reagent (10 μl) was added to each well and cell viability was assessed by measuring the absorbance at a wavelength of 450 nm after 2-3 h hours. Only living cells can reduce the tetrazolium salts into coloured formazan products. Results were expressed as 50% growth inhibition (TD50) values compared to ‘untreated’ control. The therapeutic index was calculated as the ratio of the dose that produces growth inhibition in 50% of HepG2 cells divided by the dose where 50% of S. aureus or E. coli growth is inhibited.

Data set [3] concerns S. aureus infection of G. mellonella larvae. Kind of data set: Galleria mellonella model, efficacy after S. aureus infection. To be noted: S. aureus infected larvae. It is filed as in vivo. The protocol:
as §1, with “daily.” for “daily. Larvae were considered dead when no movement occurred when touched with a blunt pair of forceps.”, “day. […]” for “day.”

Data set [4] deals with chinese hamster ovary cells (CHO). Nature of the data set: CHO toxicity assay (CCK-8 cell viability). It is filed as cell-based. To be noted: 50% growth inhibition, 24 hours. How it is done:
Cell counting kit-8 (Sigma, CCK-8) assays were performed to assess the effect of compounds on cell viability. The assay is based on the reduction of a water-soluble tetrazolium salt (WST-8) by cellular dehydrogenases to a formazan dye which can be detected spectroscopically. 96-well plates were seeded with chinese hamster ovary cells (CHO) cells at 7×10^3 cells per well in Dulbecco's modified Eagle's medium nutrient mixture F-12 Ham (containing 15 mM HEPES, NaHCO3, pyridoxine and L-glutamine) supplemented with 10% fetal bovine serum (FBS). The following day serial dilutions of compounds (dissolved and diluted in DMSO) were added to the cells in duplicates. Control included an ‘untreated’ control where cells were grown in the presence of 1% DMSO and a medium only control (plus 1% DMSO). After 24 hours CCK-8 reagent (10 μl) was added to each well and cell viability was assessed by measuring the absorbance at a wavelength of 450 nm after 2.5-3 hours. Only living cells can reduce the tetrazolium salts into coloured formazan products. Results were expressed as 50% growth inhibition (TD50) values compared to ‘untreated’ control.
The therapeutic index was calculated as the ratio of the dose that produces growth inhibition in 50% of CHO cells divided by the dose where 50% of S. aureus growth is inhibited.

Regarding `CCOC(=O)[C@H](C[S][Au]=[P](C)(C)C)NC(C)=O` [Compound 8], the “effect on preformed S. aureus biofilm” value in data set [1] is reported as “disrupted the biofilm”. The Survival proportions with G. mellonella larvae (3.75 mg/kg, Day 1) is on record as 100; with G. mellonella larvae (3.75 mg/kg, Day 2) it was 100; with G. mellonella larvae (3.75 mg/kg, Day 3), 100; in the data set with G. mellonella larvae (3.75 mg/kg, Day 4), 100; with G. mellonella larvae (7.5 mg/kg, Day 1), 100; in the data set on G. mellonella larvae (7.5 mg/kg, Day 2), 100. In addition, the Survival proportions in the data set on G. mellonella larvae (7.5 mg/kg, Day 3) is 100; in the data set with G. mellonella larvae (7.5 mg/kg, Day 4) it was 100; with G. mellonella larvae (15 mg/kg, Day 1) it was 100; in the data set on G. mellonella larvae (15 mg/kg, Day 2) it was 100; in the data set on G. mellonella larvae (15 mg/kg, Day 3), 100; in the data set on G. mellonella larvae (15 mg/kg, Day 4), 100. For the same compound, the Survival proportions with G. mellonella larvae (30 mg/kg, Day 1) is listed as 100; with G. mellonella larvae (30 mg/kg, Day 2), 90; in the data set with G. mellonella larvae (30 mg/kg, Day 3) it was 90; in the data set with G. mellonella larvae (30 mg/kg, Day 4), 90; in the data set with G. mellonella larvae (60 mg/kg, Day 1) it was 100; with G. mellonella larvae (60 mg/kg, Day 2), 80. In addition, the Survival proportions was found to be 60 with G. mellonella larvae (60 mg/kg, Day 3) and 50 in the data set with G. mellonella larvae (60 mg/kg, Day 4). The “HepG2 cell TD50” value in data set [2] was 9.5 µg/mL. In addition, the mean survival rates result in data set [3] (2 mg/kg (p=0.02)) and in data set [3] (4 mg/kg (p=0.04)) was “significantly increased” in each case.

As to `C[P](C)(C)=[Au][S]c1nc2ncccc2o1` [Compound 3], in data set [1], the “effect on preformed S. aureus biofilm” value was “disrupted the biofilm”. For the same compound, in data set [2], the “HepG2 cell TD50” value was 9 µg/mL. Further, the “CHO cell TD50” value in data set [4] came to 5.0 µg/mL.

With `C[P](C)(C)=[Au][S][C@H]1CC[C@H](O)CC1` [Compound 15], the “effect on preformed S. aureus biofilm” value in data set [1] is on record as “disrupted the biofilm”. Also, the “HepG2 cell TD50” value in data set [2] worked out at 4.5 µg/mL.

With `C[P](C)(C)=[Au][S]c1nc2cccnc2[nH]1` [Compound 7], the “effect on preformed S. aureus biofilm” value in data set [1] is reported as “disrupted the biofilm”. Moreover, the “HepG2 cell TD50” value in data set [2] came out at 12.5 µg/mL.

As for `CN1CCC([S][Au]=[P](C)(C)C)CC1` [Compound 13], the “HepG2 cell TD50” value in data set [2] amounted to 15 µg/mL.

On to `C[P](C)(C)=[Au][S]c1cccnc1` [Compound 19], for which the “HepG2 cell TD50” value in data set [2] is 3 µg/mL.

Take `C[P](C)(C)=[Au][S]c1nc2ncccc2s1` [Compound 14]: the “effect on preformed S. aureus biofilm” value in data set [1] is reported as “disrupted the biofilm”. Further, the “HepG2 cell TD50” value in data set [2] was determined as 7 µg/mL.

With `C[P](C)(C)=[Au][S]c1nc2ccccc2[nH]1` [Compound 1], in data set [2], the “HepG2 cell TD50” value was 4 µg/mL. In addition, the “CHO cell TD50” value in data set [4] was 3.2 µg/mL.

In the case of `C[P](C)(C)=[Au][S]c1ccccc1` [Compound 10], the “effect on preformed S. aureus biofilm” value in data set [1] is on record as “disrupted the biofilm”. Besides, in data set [2], the “HepG2 cell TD50” value was 2 µg/mL.

Consider `C[P](C)(C)=[Au][S]C1CCOCC1` [Compound 16], for which, in data set [2], the “HepG2 cell TD50” value amounted to 4.5 µg/mL.

In the case of `CCOC(=O)[C@H](C[Se][Au]=[P](C)(C)C)NC(C)=O` [Compound 18], the “HepG2 cell TD50” value in data set [2] was greater than 50 µg/mL.

As for `C[P](C)(C)=[Au][S]c1ccccn1` [Compound 11], the “effect on preformed S. aureus biofilm” value in data set [1] was “disrupted the biofilm”. The “HepG2 cell TD50” value in data set [2] amounted to 4.5 µg/mL.

In the case of `COC(=O)[C@H](C[S][Au]=[P](C)(C)C)NC(C)=O` [Compound 2], the “effect on preformed S. aureus biofilm” value in data set [1] was “disrupted the biofilm”. In addition, the “HepG2 cell TD50” value in data set [2] was 11 µg/mL. For the same compound, the “CHO cell TD50” value in data set [4] was determined as 6.4 µg/mL.

With `C[P](C)(C)=[Au][S]c1ncccn1` [Compound 12], the “effect on preformed S. aureus biofilm” value in data set [1] was “disrupted the biofilm”. For the same compound, the “HepG2 cell TD50” value in data set [2] came to 4.5 µg/mL.

On to `CC(=O)N[C@@H](C[S][Au]=[P](C)(C)C)C(N)=O` [Compound 4], for which the “effect on preformed S. aureus biofilm” value in data set [1] is recorded as “disrupted the biofilm”. The “HepG2 cell TD50” value in data set [2] stood at 22 µg/mL.
